Laboratory results from BigSolDB 2.1.

O=[N+]([O-])/N=C1\NCCN1Cc1ccc(Cl)nc1
solubility (mole fraction)
Settings	283.15 K	288.15 K	293.15 K	298.15 K	303.15 K	308.15 K	313.15 K	318.15 K	323.15 K
in acetone	0.00862	0.0102	0.012	0.014	0.0163	0.0188	0.0218	0.0249	0.0285
in ethanol	0.000303	0.0004	0.00053	0.000699	0.000895	0.00115	0.00148	0.00191	0.00238
in methanol	0.000689	0.000882	0.00112	0.00141	0.00177	0.00221	0.00274	0.00339	0.0041
in n-propanol	0.000266	0.000362	0.000475	0.00064	0.000837	0.00109	0.0014	0.00179	0.00228
in water	6.79e-06	9.67e-06	1.36e-05	1.87e-05	2.56e-05	3.43e-05	4.71e-05	6.23e-05	8.15e-05
